# Data taken from US20030215462A1, “Use of UGT inhibitors to increase bioavailability” (priority 2001, published 2003).
# Several values for one entry are separate records, joined by “and”; a condition that tells them apart may be missing. Equal values may be shown once. Read-outs that look alike come from different tables or passages of the source.
# Experiments:
# [1] = tested on: T1, UGT enzymes of human liver microsomes; experiment: Inhibition of 7-HFC glucuronidation in human liver microsomes; assay type: biochemical; conditions: for % of control metabolism (SD, n = 3), 7-HFC glucuronidation / IC50: 7-HFC 50 μM, 15 min; for % of control metabolism (SD, n = 3), 7-HFC glucuronidation: human liver microsomes 100 μg/ml; for IC50: 1 mM UDPGA
# T1 construct: percentage of control metabolism, 7-HFC glucuronidation; percentage of control metabolism, 7-HFC glucuronidation
# [2] = tested on: UGT enzymes of human liver microsomes; experiment: Inhibition of raloxifene glucuronidation (G1, G2) in human liver microsomes; assay type: biochemical
# Description: Compounds were eluted using a binary solvent gradient system. […] Solvent B was methanol. […] Detection was at 280 nm.
# [3] = G1, inhibitor 500 μM, raloxifene 50 μM, human liver microsomes 250 μg/ml, 15 min
# [4] = G2, inhibitor 500 μM, raloxifene 50 μM, human liver microsomes 250 μg/ml, 15 min
# [5] = G1, inhibitor 100 μM, raloxifene 50 μM, human liver microsomes 250 μg/ml, 15 min
# [6] = G2, inhibitor 100 μM, raloxifene 50 μM, human liver microsomes 250 μg/ml, 15 min
smiles,measurement,setting,value
COc1c2ccoc2cc2oc(=O)ccc12 [5-Methoxypsoralen (bergapten)],"% of control metabolism (SD, n = 3), 7-HFC glucuronidation",[1]; inhibitor 500 μM,"97 (1), % and 92 (1) %"
Cc1cn([C@H]2C[C@H](N=[N+]=[N-])[C@@H](CO[C@@H]3O[C@H](C(=O)O)[C@@H](O)[C@H](O)[C@H]3O)O2)c(=O)[nH]c1=O [AZT glucuronide],"% of control metabolism (SD, n = 3), 7-HFC glucuronidation",[1]; inhibitor 500 μM,103 (1) %
"CN(C)CCC=C1c2ccccc2CCc2ccccc21 [Amitriptyline, reference compound]","% of control metabolism (SD, n = 3), 7-HFC glucuronidation",[1]; inhibitor 500 μM,94 (1) %
same,"% of control metabolism (SD, n = 3), raloxifene glucuronide G1",[2]; [3],138 (6) %
same,"% of control metabolism (SD, n = 3), raloxifene glucuronide G2",[2]; [4],132 (5) %
O=C1O[C@H]([C@@H](O)CO)C(O)=C1O [Ascorbic acid],"% of control metabolism (SD, n = 3), 7-HFC glucuronidation",[1]; inhibitor 500 μM,99 (1) %
CCCCCCCCCCCCCCCC(=O)OC[C@H](O)[C@H]1OC(=O)C(O)=C1O [Ascorbyl palmitate],IC50,[1],200 µM
same,"percentage of control metabolism, 7-HFC glucuronidation",[1]; inhibitor 100 μM,64 (1) %
same,"% of control metabolism (SD, n = 3), 7-HFC glucuronidation",[1]; inhibitor 100 μM,64 (1) %
same,"percentage of control metabolism, 7-HFC glucuronidation",[1]; inhibitor 200 μM,51 (1) %
same,"% of control metabolism (SD, n = 3), 7-HFC glucuronidation",[1]; inhibitor 200 μM,51 (1) %
same,"percentage of control metabolism, 7-HFC glucuronidation",[1]; inhibitor 500 μM,11 (3) % and 17 (0) %
same,"% of control metabolism (SD, n = 3), 7-HFC glucuronidation",[1]; inhibitor 500 μM,"11 (3), % and 17 (0) %"
same,"% of control metabolism (SD, n = 3), raloxifene glucuronide G1",[2]; [5],57 (2) %
same,"% of control metabolism (SD, n = 3), raloxifene glucuronide G1",[2]; [3],26 (1) %
same,"% of control metabolism (SD, n = 3), raloxifene glucuronide G2",[2]; [6],71 (4) %
same,"% of control metabolism (SD, n = 3), raloxifene glucuronide G2",[2]; [4],36 (5) %
CCCCCCCCCCCCCCCCCC(=O)OC[C@H](O)[C@H]1OC(=O)C(O)=C1O [Ascorbyl stearate],"% of control metabolism (SD, n = 3), 7-HFC glucuronidation",[1]; inhibitor 500 μM,73 (2) %
"CCCC(=O)OCC(O)C1OC(=O)C(OC(=O)CCC)=C1O (stereo not drawn) [Ascorbyl-2,6-dibutyrate]","% of control metabolism (SD, n = 3), 7-HFC glucuronidation",[1]; inhibitor 500 μM,92 (1) %
CCCCCCCCCCCCCCCC(=O)O[C@H]1CC[C@@]2(C)C(=CC[C@H]3[C@@H]4CC[C@H]([C@H](C)CCCC(C)C)[C@@]4(C)CC[C@@H]32)C1 [Cholesteryl palmitate],"% of control metabolism (SD, n = 3), 7-HFC glucuronidation",[1]; inhibitor 500 μM,100 (3) %
OCC=Cc1ccccc1 [Cinnamyl alcohol],"% of control metabolism (SD, n = 3), 7-HFC glucuronidation",[1]; inhibitor 500 μM,87 (1) %
COc1cc(/C=C/CO)ccc1O [Coniferol],"% of control metabolism (SD, n = 3), 7-HFC glucuronidation",[1]; inhibitor 500 μM,87 (0) %
C[C@]12CC[C@@H]3c4ccc(O)cc4CC[C@H]3[C@@H]1C[C@@H](O)[C@@H]2O [Estriol],"% of control metabolism (SD, n = 3), 7-HFC glucuronidation",[1]; inhibitor 500 μM,84 (2) %
same,"% of control metabolism (SD, n = 3), raloxifene glucuronide G1",[2]; [3],46 (3) %
same,"% of control metabolism (SD, n = 3), raloxifene glucuronide G2",[2]; [4],60 (3) %
CCCCCCCCCCCCCCCC(=O)OCC [Ethyl palmitate],"% of control metabolism (SD, n = 3), 7-HFC glucuronidation",[1]; inhibitor 500 μM,89 (3) %
O=C(O)c1cc(O)c(O)c(O)c1 [Gallic acid],"% of control metabolism (SD, n = 3), 7-HFC glucuronidation",[1]; inhibitor 500 μM,117 (2) %
CCCCCCCCCCCCOC(=O)c1cc(O)c(O)c(O)c1 [Lauryl gallate],IC50,[1],100 µM
same,"percentage of control metabolism, 7-HFC glucuronidation",[1]; inhibitor 25 μM,92 (3) %
same,"% of control metabolism (SD, n = 3), 7-HFC glucuronidation",[1]; inhibitor 25 μM,92 (3) %
same,"percentage of control metabolism, 7-HFC glucuronidation",[1]; inhibitor 50 μM,76 (2) %
same,"% of control metabolism (SD, n = 3), 7-HFC glucuronidation",[1]; inhibitor 50 μM,76 (2) %
same,"percentage of control metabolism, 7-HFC glucuronidation",[1]; inhibitor 100 μM,43 (2) % and 49 (1) %
same,"% of control metabolism (SD, n = 3), 7-HFC glucuronidation",[1]; inhibitor 100 μM,43 (2) % and 49 (1) %
same,"percentage of control metabolism, 7-HFC glucuronidation",[1]; inhibitor 200 μM,22 (1) %
same,"% of control metabolism (SD, n = 3), 7-HFC glucuronidation",[1]; inhibitor 200 μM,22 (1) %
same,"percentage of control metabolism, 7-HFC glucuronidation",[1]; inhibitor 500 μM,18 (6) %
same,"% of control metabolism (SD, n = 3), 7-HFC glucuronidation",[1]; inhibitor 500 μM,18 (6) %
same,"% of control metabolism (SD, n = 3), raloxifene glucuronide G1",[2]; [5],64 (4) %
same,"% of control metabolism (SD, n = 3), raloxifene glucuronide G1",[2]; [3],7 (0) %
same,"% of control metabolism (SD, n = 3), raloxifene glucuronide G2",[2]; [6],85 (3) %
same,"% of control metabolism (SD, n = 3), raloxifene glucuronide G2",[2]; [4],37 (1) %
CC(C)[C@@H]1CC[C@@H](C)C[C@H]1O[C@@H]1O[C@H](C(=O)O)[C@@H](O)[C@H](O)[C@H]1O [Menthol glucuronide],"% of control metabolism (SD, n = 3), 7-HFC glucuronidation",[1]; inhibitor 500 μM,94 (4) %
same,"% of control metabolism (SD, n = 3), raloxifene glucuronide G1",[2],91 (2) %
same,"% of control metabolism (SD, n = 3), raloxifene glucuronide G2",[2],84 (1) %
COc1ccc2cc(CCC(C)=O)ccc2c1 [Nabumetone],"% of control metabolism (SD, n = 3), 7-HFC glucuronidation",[1]; inhibitor 500 μM,81 (3) %
same,"% of control metabolism (SD, n = 3), raloxifene glucuronide G1",[2]; [3],75 (2) %
same,"% of control metabolism (SD, n = 3), raloxifene glucuronide G2",[2]; [4],80 (2) %
COc1ccc2cc([C@H](C)C(=O)O)ccc2c1 [Naproxen Free Acid],"% of control metabolism (SD, n = 3), 7-HFC glucuronidation",[1]; inhibitor 500 μM,83 (1) %
same,"% of control metabolism (SD, n = 3), raloxifene glucuronide G1",[2],81 (3) %
same,"% of control metabolism (SD, n = 3), raloxifene glucuronide G2",[2],78 (2) %
COc1ccc2cc([C@H](C)C(=O)[O-])ccc2c1.[Na+] [Naproxen Na salt],"% of control metabolism (SD, n = 3), 7-HFC glucuronidation",[1]; inhibitor 500 μM,82 (1) %
CC(C)=CCC/C(C)=C\CO [Nerol],"% of control metabolism (SD, n = 3), 7-HFC glucuronidation",[1]; inhibitor 500 μM,71 (2) %
CCCCCCCCCCCCCCCC(=O)O [Palmitic acid],"% of control metabolism (SD, n = 3), 7-HFC glucuronidation",[1]; inhibitor 500 μM,104 (2) %
CCCCCCCCCCCCCCCC(=O)OC/C=C(C)/C=C/C=C(C)/C=C/C1=C(C)CCCC1(C)C [Retinol palmitate],"% of control metabolism (SD, n = 3), 7-HFC glucuronidation",[1]; inhibitor 100 μM,90 (3) %
same,"% of control metabolism (SD, n = 3), 7-HFC glucuronidation",[1]; inhibitor 200 μM,82 (1) %
same,"% of control metabolism (SD, n = 3), 7-HFC glucuronidation",[1]; inhibitor 500 μM,81 (4) %
CC(=O)OC/C=C(C)/C=C/C=C(C)/C=C/C1=C(C)CCCC1(C)C [Retinyl acetate],"% of control metabolism (SD, n = 3), 7-HFC glucuronidation",[1]; inhibitor 100 μM,72 (1) %
same,"% of control metabolism (SD, n = 3), 7-HFC glucuronidation",[1]; inhibitor 200 μM,60 (3) %
same,"% of control metabolism (SD, n = 3), 7-HFC glucuronidation",[1]; inhibitor 500 μM,48 (1) %
CC1=C(CC(=O)O)c2cc(F)ccc2/C1=C\c1ccc([S+](C)[O-])cc1 (stereo not drawn) [Sulindac],"% of control metabolism (SD, n = 3), 7-HFC glucuronidation",[1]; inhibitor 500 μM,85 (0) %
same,"% of control metabolism (SD, n = 3), raloxifene glucuronide G1",[2]; [5],76 (6) %
same,"% of control metabolism (SD, n = 3), raloxifene glucuronide G1",[2]; [3],25 (3) %
same,"% of control metabolism (SD, n = 3), raloxifene glucuronide G2",[2]; [6],79 (4) %
same,"% of control metabolism (SD, n = 3), raloxifene glucuronide G2",[2]; [4],44 (2) %
C=CC[C@@H]1/C=C(\C)C[C@H](C)C[C@H](OC)[C@H]2O[C@@](O)(C(=O)C(=O)N3CCCC[C@H]3C(=O)O[C@H](/C(C)=C/[C@@H]3CC[C@@H](O)[C@H](OC)C3)[C@H](C)[C@@H](O)CC1=O)[C@H](C)C[C@@H]2OC [Tacrolimus],"% of control metabolism (SD, n = 3), 7-HFC glucuronidation",[1]; inhibitor 500 μM,126 (4) %
CCCCNC(=O)NS(=O)(=O)c1ccc(C)cc1 [Tolbutamide],"% of control metabolism (SD, n = 3), 7-HFC glucuronidation",[1]; inhibitor 500 μM,100 (0) %
same,"% of control metabolism (SD, n = 3), raloxifene glucuronide G1",[2],98 (7) %
same,"% of control metabolism (SD, n = 3), raloxifene glucuronide G2",[2],91 (2) %
CC1=CC(=O)c2ccccc2C1=O [Vitamin K3],"% of control metabolism (SD, n = 3), 7-HFC glucuronidation",[1]; inhibitor 500 μM,78 (2) %
"O=[N+]([O-])c1ccc(O)cc1 [p-Nitrophenol, reference compound]","% of control metabolism (SD, n = 3), 7-HFC glucuronidation",[1]; inhibitor 500 μM,62 (1) %
same,"% of control metabolism, raloxifene G1",[2],"37 (0), 42 (2) % and 49 (2), 51 (2) % and 63 (4), 66 (1) %"
same,"% of control metabolism, raloxifene G2",[2],"37 (0), 42 (2) % and 49 (2), 51 (2) % and 63 (4), 66 (1) %"
CCCCCCCCCCCCCCCC(=O)Oc1ccc([N+](=O)[O-])cc1 [p-Nitrophenyl palmitate],"% of control metabolism (SD, n = 3), 7-HFC glucuronidation",[1]; inhibitor 500 μM,96 (1) %
CCCCCCCCCCCCCCCC(=O)Oc1cccc2ccccc12 [α-Naphthyl palmitate],"% of control metabolism (SD, n = 3), 7-HFC glucuronidation",[1]; inhibitor 500 μM,70 (3) %
